Measured values taken from patent US8410310B2, “Trypsin-like serine protease inhibitors, and their preparation and use” (The Medicines Company (Leipzig) GmbH, priority 2006, dated 2013).

What was measured:
[1] = test system: coagulation in human plasma (PPP); assay: Plasma coagulation times (prothrombin time, activated partial thromboplastin time); type: biochemical; conditions: for plasma coagulation times (prothrombin time, activated partial thromboplastin time): 100 to 1000 nM
From the text: (§1) Since Compound No. 3 inhibits multiple proteases of the coagulation system, we investigated possible anticoagulant properties using established tests in vitro. Whereas tissue factor is the physiologic trigger of coagulation, both extrinsic and contact-mediated stimulation contribute to hemostatic activation under conditions like CPB (Boisclair et al. Blood 82: 3350-7, 1993 and Edmunds et al., Ann. Thorac. Surg. 82: 2315-22, 2006). We therefore studied the impact of Compound No. 3 and aprotinin on coagulation in plasma and whole blood following both intrinsic and extrinsic stimulation. Tranexamic acid has no influence on other proteases than plasminogen and, therefore, is not included in these experiments.
Prothrombin time and activated partial thromboplastin time were determined after human plasma (PPP) was supplemented with test compound solution or saline using a conventional coagulation analyzer (Sysmex CA-560, Dade Behring). Reagents used were Innovin® (extrinsic activator containing tissue factor) for prothrombin time and Actin® FSL (contact activator containing ellagic acid and phospholipids) for activated partial thromboplastin time, both from Dade Behring (Eschborn, Germany).

[2] = test system: whole blood clotting; assay: Whole blood coagulation assay (ROTEM, INTEM/EXTEM); type: cell-based, human; conditions: for whole blood coagulation times (INTEM, EXTEM clotting time): 100 to 1000 nM; for clot strength (ROTEM maximum amplitude): over the concentration range tested (data not shown)
From the text: as §1
The influence on whole blood clotting was assayed with rotational thrombelastometry (Ganter et al., Anesth. Analg. 106: 1366-75, 2008) using ellagic acid (INTEM reagent) as activator of the intrinsic system or tissue factor (EXTEM reagent) as extrinsic coagulation activator. Following a 5-min pre-incubation with test compounds or saline, citrated human blood was subjected to ROTEM® analysis according to the manufacturer's instructions. ROTEM® clotting time (equal to reaction time, r) and maximum clot strength (equal to maximum amplitude) were obtained as coagulation parameters.

[3] = biological target: trypsin; conditions: background; cited from earlier work
[4] = biological target: T1, Thrombin (Homo sapiens, UniProt P00734); assay: Inhibition constants against purified human serine proteases: thrombin; type: biochemical; parameters: Human factor Xa, factor XIa, factor XIIa, thrombin, and plasma kallikrein were purchased; purchased Enzyme Research Laboratories (via Haemochrom, Essen); conditions: 50 mM Tris-HCl pH 8.0, 154 mM NaCl, Pefachrom tPA
From the text: (§2) Aprotinin and tranexamic acid were purchased from SIGMA (Schnelldorf, Germany). Human factor Xa, factor XIa, factor XIIa, thrombin, and plasma kallikrein were purchased from Enzyme Research Laboratories, and human plasmin from Chromogenix (both via Haemochrom, Essen, Germany). Various synthetic peptide chromogenic substrates used for determination of inhibition constants were obtained from Pentapharm (Basel, Switzerland), Roche (Mannheim, Germany), and Chromogenix: Chromozyme PL for plasmin, S2302 for plasma kallikrein, Pefachrome FXa for factor Xa, Chromozym XII for FXIIa, Pefachrom tPA for thrombin, and Pefachrome PCa for factor XIa. […]
(§3) Inhibition of purified human serine proteases by Compound No. 3 and aprotinin was studied using the established methods described herein in Example 3 (i.e., Stürzebecher et al., 1997). […] Steady-state velocities of substrate conversion were obtained from progress curves generated by continuous monitoring of the absorbance at 405 nm with a microplate reader (Multiskan Ascent, Thermo Electron Corporation, Dreieich, Germany). […] Inhibition constants (Ki) were calculated from non-linear fits of individual data sets to the Michaelis-Menten equation for competitive inhibitors using an enzyme kinetic analysis software (SIGMA Plot® 9.0 Enzyme Kinetics Module, SSI, San Jose, Calif.). […]

[5] = biological target: Xa (Homo sapiens, UniProt P00742); assay: Determination of inhibition constants for Xa; type: biochemical
Method in brief: (§4)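 Chromogenic assays measured absorbance at 405 nm: zero-order reactions were stopped with acetic acid after 20 min, and pseudo-first-order rates were recorded kinetically at equilibrium. Ki was obtained by Dixon linear regression or by fitting to the competitive-inhibition rate equation, averaging at least two determinations.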

[6] = biological target: T1, Thrombin; assay: Determination of inhibition constants for thrombin; type: biochemical
Method in brief: as §4

[7] = biological target: T2, Human factor XIIa (alpha) (Homo sapiens, UniProt P00748); assay: Inhibition constants against purified human serine proteases: FXIIa; type: biochemical; conditions: 50 mM Tris-HCl pH 8.0, 154 mM NaCl, Chromozym XII
T2 construct: Human factor Xa, factor XIa, factor XIIa, thrombin, and plasma kallikrein were purchased; purchased Enzyme Research Laboratories (via Haemochrom, Essen)
T2 sequence (P00748 373-615 limits assumed): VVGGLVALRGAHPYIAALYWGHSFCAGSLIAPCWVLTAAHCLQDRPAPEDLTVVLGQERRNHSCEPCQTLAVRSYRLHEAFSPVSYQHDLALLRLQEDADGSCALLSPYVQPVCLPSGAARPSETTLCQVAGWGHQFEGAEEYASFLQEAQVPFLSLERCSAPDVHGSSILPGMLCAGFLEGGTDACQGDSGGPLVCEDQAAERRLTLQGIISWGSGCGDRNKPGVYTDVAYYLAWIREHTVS
T2 sequence (P00748 20-372 partner limits assumed): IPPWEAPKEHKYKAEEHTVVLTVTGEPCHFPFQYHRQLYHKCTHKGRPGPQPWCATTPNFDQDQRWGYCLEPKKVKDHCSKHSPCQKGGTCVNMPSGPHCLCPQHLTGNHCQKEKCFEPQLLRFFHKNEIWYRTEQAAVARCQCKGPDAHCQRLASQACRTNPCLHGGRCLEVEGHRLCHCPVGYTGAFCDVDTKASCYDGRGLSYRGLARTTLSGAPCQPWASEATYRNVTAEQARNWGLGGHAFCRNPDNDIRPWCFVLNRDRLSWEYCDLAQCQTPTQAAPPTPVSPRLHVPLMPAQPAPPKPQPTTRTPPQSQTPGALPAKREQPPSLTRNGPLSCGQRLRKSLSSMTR
From the text: as §2, §3

[8] = biological target: plasma kallikrein (Homo sapiens, UniProt P03952); assay: Inhibition constants against purified human serine proteases: plasma kallikrein; type: biochemical; parameters: purchased Enzyme Research Lab. / Enzyme Research Laboratories
From the text: as §2, §3

[9] = higher aprotinin concentrations (data not shown)

Sequence of plasma kallikrein (P03952 391-638 limits assumed): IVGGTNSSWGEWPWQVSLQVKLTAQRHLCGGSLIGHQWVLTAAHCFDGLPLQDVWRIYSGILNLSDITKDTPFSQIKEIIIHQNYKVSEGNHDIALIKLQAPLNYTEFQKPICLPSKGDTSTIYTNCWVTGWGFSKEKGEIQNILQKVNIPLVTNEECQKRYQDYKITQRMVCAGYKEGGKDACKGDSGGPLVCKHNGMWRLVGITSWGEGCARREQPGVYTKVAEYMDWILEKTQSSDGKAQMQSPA
Sequence of plasma kallikrein (P03952 20-390 partner limits assumed): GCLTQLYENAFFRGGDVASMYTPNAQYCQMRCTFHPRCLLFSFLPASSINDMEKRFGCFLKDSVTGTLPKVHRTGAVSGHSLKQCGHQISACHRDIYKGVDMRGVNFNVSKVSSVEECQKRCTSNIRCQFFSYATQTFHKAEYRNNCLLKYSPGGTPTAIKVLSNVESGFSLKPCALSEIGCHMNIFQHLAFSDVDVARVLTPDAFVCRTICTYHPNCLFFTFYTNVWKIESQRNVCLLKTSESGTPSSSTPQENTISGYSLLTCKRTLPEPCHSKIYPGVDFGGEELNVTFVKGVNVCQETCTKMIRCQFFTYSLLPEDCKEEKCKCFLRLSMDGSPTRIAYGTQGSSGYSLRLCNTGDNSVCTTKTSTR
Sequence of Xa (P00742 235-488 limits assumed): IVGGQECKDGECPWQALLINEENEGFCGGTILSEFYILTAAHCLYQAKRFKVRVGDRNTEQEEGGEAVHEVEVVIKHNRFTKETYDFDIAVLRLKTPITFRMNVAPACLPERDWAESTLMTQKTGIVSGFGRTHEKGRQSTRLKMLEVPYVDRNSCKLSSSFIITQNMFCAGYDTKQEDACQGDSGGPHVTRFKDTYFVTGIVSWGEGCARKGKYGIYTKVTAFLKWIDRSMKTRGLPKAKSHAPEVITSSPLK
Sequence of Xa (P00742 41-179 limits assumed): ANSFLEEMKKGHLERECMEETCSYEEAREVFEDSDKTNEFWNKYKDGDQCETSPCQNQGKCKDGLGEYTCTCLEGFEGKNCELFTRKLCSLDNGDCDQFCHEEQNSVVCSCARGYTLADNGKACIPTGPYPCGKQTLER

With aprotinin the “plasma coagulation times (prothrombin time, activated partial thromboplastin time)” value [1] was “almost no influence”, the “activated partial thromboplastin time” value [1, 9] was “marked prolongation” and the extrinsic coagulation [1, 9] was “not affected”. For the same compound, the “whole blood coagulation times (INTEM, EXTEM clotting time)” value [2] was “almost no influence”, the “intrinsic ROTEM clotting times” value [2, 9] was “marked prolongation” and the “clot strength (ROTEM maximum amplitude)” value [2] was “Neither Compound No. 3 nor aprotinin impaired clot strength”. For the same compound, the Ki [3] was 0.1 nM and the Ki [4] was 76000 nM.
For `N=C(N)c1ccc(CNC(=O)[C@H](Cc2cccc(CN)c2)NC(=O)[C@@H](CCCc2ccccc2)NS(=O)(=O)Cc2cccc(C(=O)O)c2)cc1` [compound 3, 3-HOOC-Bzls-d-Ppg-Phe(3-Ame)-4-Amba×2 acetate], the Ki [5] was less than 100 nM, the Ki [6] was greater than 1000 nM and the Ki [7] was 5200 ± 400 nM. For the same compound, the “plasma coagulation times (prothrombin time, activated partial thromboplastin time)” value [1] was “significant prolongation”, the “whole blood coagulation times (INTEM, EXTEM clotting time)” value [2] was “significant prolongation” and the “clot strength (ROTEM maximum amplitude)” value [2] was “Neither Compound No. 3 nor aprotinin impaired clot strength”. For the same compound, the Ki ([8]; 50 mM Tris-HCl pH 8.0, 154 mM NaCl, S2302) was 0.019 ± 0.003 nM, the “stronger inhibition of plasma kallikrein than aprotinin” value ([8]; versus aprotinin) was 2000 fold and the Ki [4] was 1700 ± 200 nM.
